Results published in patent US6297354A, “Pentapeptide LHRH antagonists” (Abbott Laboratories, priority 1999, dated 2001).
Where a SMILES comes first, the peptide text is derived from it. [ ]: non-standard residue; d: D form. The star is where a group is joined. Propanoyl(3-(4-F-phenyl)) = O=C(CCc1ccc(F)cc1)*; NH(2-pyrrolidin-1-ylethyl) = C1CCN(CCN*)C1; dBip = N[C@H](Cc1ccc(-c2ccccc2)cc1)C(=O)O; 1Nal = N[C@@H](Cc1cccc2ccccc12)C(=O)O; d1Nal = N[C@H](Cc1cccc2ccccc12)C(=O)O; NMeY = CN[C@@H](Cc1ccc(O)cc1)C(=O)O; Tic = O=C(O)[C@@H]1Cc2ccccc2CN1; NMeL = CN[C@@H](CC(C)C)C(=O)O; Nicotinoyl = O=C(c1cccnc1)*; Sar = CNCC(=O)O

Target: T1, LH release from rat pituitary cells (Rattus norvegicus, UniProt P30969)
T1 sequence (P30969 1-327): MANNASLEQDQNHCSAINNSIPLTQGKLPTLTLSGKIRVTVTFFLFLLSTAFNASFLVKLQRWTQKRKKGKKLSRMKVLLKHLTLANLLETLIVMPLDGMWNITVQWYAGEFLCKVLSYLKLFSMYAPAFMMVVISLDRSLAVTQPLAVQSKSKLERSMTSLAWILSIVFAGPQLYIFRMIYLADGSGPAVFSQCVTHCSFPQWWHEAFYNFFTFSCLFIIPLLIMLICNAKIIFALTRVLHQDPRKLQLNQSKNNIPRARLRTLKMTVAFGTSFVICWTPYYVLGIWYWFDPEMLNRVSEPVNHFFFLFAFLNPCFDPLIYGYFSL
Experiment: in vitro inhibition of LH release from rat pituitary cells (pA2, vs agonist leuprolide)
Assay type: cell-based
Details: negative logarithm of antagonist concentration required to shift the response curve produced by agonist leuprolide to two-fold higher concentration
Description: Representative compounds of the present invention were evaluated in vitro for inhibition of LH release from rat pituitary cells (pA2). Methods for the assay procedures are described by F. Haviv, et al. J. Med. Chem., 32:2340-2344 (1989). Values of pA2 are the negative logarithms of the concentration of the particular antagonist test compound required to shift the response curve produced by the agonist leuprolide to two-fold higher concentration. Typically values of 6.0 or greater are indicative of good LHRH antagonist potency, with values of 7.0 or greater being preferred. Leuprolide LHRH agonist, disclosed and claimed in U.S. Pat. No. 4,005,063, has the structure 5-oxo-Pro1^1 -His^2 […] -Ser^4 -Tyr^5 -D-Leu^6 -Leu^7 -Arg^8 -Pro^9 -NHEt.

Compound	LHRH Antagonist Activity (pA2)
CC(C)C[C@H](NC(=O)[C@@H](CCCCNC(=O)c1cccnc1)NC(=O)[C@H](Cc1ccc(O)cc1)N(C)C(=O)[C@H](CO)NC(=O)[C@@H](Cc1cccc2ccccc12)NC(=O)CCc1ccc(F)cc1)C(=O)NCCN1CCCC1 [Example 1, 4-F-Phenylpropionyl-D1Nal-Ser-NMeTyr-DLys(Nic)-Leu-NH--(CH2)2 -(1-pyrrolidine)] ({Propanoyl(3-(4-F-phenyl))}-[d1Nal]S[NMeY][dK](Nicotinoyl)L-{NH(2-pyrrolidin-1-ylethyl)})	9.91
CC(C)C[C@H](NC(=O)CNC(=O)[C@H](Cc1ccc(O)cc1)N(C)C(=O)[C@H](CO)NC(=O)[C@@H](Cc1cccc2ccccc12)NC(=O)CCc1ccc(F)cc1)C(=O)NCCN1CCCC1 [Example 2, 4-F-Phenylpropionyl-D1Nal-Ser-NMeTyr-Gly-Leu-NH--(CH2)2 -(1pyrrolidine)] ({Propanoyl(3-(4-F-phenyl))}-[d1Nal]S[NMeY]GL-{NH(2-pyrrolidin-1-ylethyl)})	9.14
CC(C)C[C@H](NC(=O)[C@@H](CCCCNC(=O)c1cccnc1)NC(=O)CN(C)C(=O)[C@H](CO)NC(=O)[C@@H](Cc1cccc2ccccc12)NC(=O)CCc1ccc(F)cc1)C(=O)NCCN1CCCC1 [Example 3, 4-F-Phenylpropionyl-D1Nal-Ser-Sar-DLys(Nic)-Leu-NH--(CH2)2 (1-pyrrolidine)] ({Propanoyl(3-(4-F-phenyl))}-[d1Nal]S[Sar][dK](Nicotinoyl)L-{NH(2-pyrrolidin-1-ylethyl)})	7.66
CC(C)C[C@H](NC(=O)[C@@H](CCCCNC(=O)c1cccnc1)NC(=O)[C@H](Cc1ccc(O)cc1)N(C)C(=O)CNC(=O)[C@@H](Cc1cccc2ccccc12)NC(=O)CCc1ccc(F)cc1)C(=O)NCCN1CCCC1 [Example 6, 4-F-Phenylpropionyl-D1Nal-Gly-NMeTyr-DLys(Nic)-Leu-NH--(CH2)2 -(1-pyrrolidine)] ({Propanoyl(3-(4-F-phenyl))}-[d1Nal]G[NMeY][dK](Nicotinoyl)L-{NH(2-pyrrolidin-1-ylethyl)})	8.90
CC(C)C[C@H](NC(=O)[C@@H](CCCCNC(=O)c1cccnc1)NC(=O)[C@H](Cc1ccc(O)cc1)NC(=O)[C@H](CO)NC(=O)[C@@H](Cc1cccc2ccccc12)NC(=O)CCc1ccc(F)cc1)C(=O)NCCN1CCCC1 [Example 7, 4-F-Phenylpropiopyl-D1Nal-Ser-Tyr-DLys(Nic)-Leu-NH--(CH2)2 -(1-pyrrolidine)] ({Propanoyl(3-(4-F-phenyl))}-[d1Nal]SY[dK](Nicotinoyl)L-{NH(2-pyrrolidin-1-ylethyl)})	9.73
CC(C)C[C@@H](C(=O)NCCN1CCCC1)N(C)C(=O)CNC(=O)[C@H](Cc1ccc(O)cc1)N(C)C(=O)[C@H](CO)NC(=O)[C@@H](Cc1cccc2ccccc12)NC(=O)CCc1ccc(F)cc1 [Example 8, 4-F-Phenylpropionyl-D1Nal-Ser-NMeTyr-Gly-NMeLeu-NH--(CH2)2 -(1Pyrrolidine)] ({Propanoyl(3-(4-F-phenyl))}-[d1Nal]S[NMeY]G[NMeL]-{NH(2-pyrrolidin-1-ylethyl)})	9.00
CC(C)C[C@@H](C(=O)NCCN1CCCC1)N(C)C(=O)CNC(=O)[C@H](Cc1ccc(O)cc1)N(C)C(=O)CNC(=O)[C@@H](Cc1cccc2ccccc12)NC(=O)CCc1ccc(F)cc1 [Example 9, 4-F-Phenylpropionyl-D1Nal-Gly-NMeTyr-Gly-NMeLeu-NH--(CH2)2 -(1-pyrrolidine)] ({Propanoyl(3-(4-F-phenyl))}-[d1Nal]G[NMeY]G[NMeL]-{NH(2-pyrrolidin-1-ylethyl)})	7.72
CC(C)C[C@H](NC(=O)[C@@H](CCCCNC(=O)c1cccnc1)NC(=O)[C@H](Cc1ccc(O)cc1)N(C)C(=O)[C@H](CO)NC(=O)[C@@H](Cc1c[nH]c2ccccc12)NC(=O)CCc1ccc(F)cc1)C(=O)NCCN1CCCC1 [Example 10, 4-F-Phenylpropionyl-DTrp-Ser-NMeTyr-DLys(Nic)-Leu-NH--(CH2)2 -(1-pyrrolidine)] ({Propanoyl(3-(4-F-phenyl))}-[dW]S[NMeY][dK](Nicotinoyl)L-{NH(2-pyrrolidin-1-ylethyl)})	8.69
CC(C)C[C@H](NC(=O)[C@@H](CCCCNC(=O)c1cccnc1)NC(=O)[C@H](Cc1ccc(O)cc1)N(C)C(=O)[C@H](CO)NC(=O)[C@@H](Cc1ccc(-c2ccccc2)cc1)NC(=O)CCc1ccc(F)cc1)C(=O)NCCN1CCCC1 [Example 11, 4-F-Phenylpropionyl-DBiphe-Ser-NMeTyr-DLys(Nic)-Leu-NH--(CH2)2-(1-pyrrolidine)] ({Propanoyl(3-(4-F-phenyl))}-[dBip]S[NMeY][dK](Nicotinoyl)L-{NH(2-pyrrolidin-1-ylethyl)})	7.62
CC(C)C[C@H](NC(=O)[C@@H](CCCCNC(=O)c1cccnc1)NC(=O)[C@H](Cc1ccc(O)cc1)N(C)C(=O)[C@H](CO)NC(=O)[C@H](Cc1cccc2ccccc12)NC(=O)CCc1ccc(F)cc1)C(=O)NCCN1CCCC1 [Example 14, 4-F-Phenylpropionyl-1Nal-Ser-NMeTyr-DLys(Nic)-Leu-NH--(CH2)2 -(1-pyrrolidine)] ({Propanoyl(3-(4-F-phenyl))}-[1Nal]S[NMeY][dK](Nicotinoyl)L-{NH(2-pyrrolidin-1-ylethyl)})	8.68
CC(C)C[C@H](NC(=O)[C@@H](Cc1ccccc1)NC(=O)[C@H](Cc1ccc(O)cc1)N(C)C(=O)[C@H](CO)NC(=O)[C@@H](Cc1c[nH]c2ccccc12)NC(=O)CCc1ccc(F)cc1)C(=O)NCCN1CCCC1 [Example 15, 4-F-Phenylpropionyl-DTrp-Ser-NMeTyr-DPhe-Leu-NH--(CH2)2 -(1-pyrrolidine)] ({Propanoyl(3-(4-F-phenyl))}-[dW]S[NMeY][dF]L-{NH(2-pyrrolidin-1-ylethyl)})	8.59
CC(C)C[C@H](NC(=O)[C@@H](CCCCNC(=O)c1cccnc1)NC(=O)[C@H](Cc1ccc(O)cc1)N(C)C(=O)[C@@H]1CCCN1C(=O)[C@@H](Cc1cccc2ccccc12)NC(=O)CCc1ccc(F)cc1)C(=O)NCCN1CCCC1 [Example 16, 4-F-Phenylpropionyl-D1Nal-Pro-NMeTyr-DLys(Nic)-Leu-NH--(CH2)2 -(1-Pyrrolidine)] ({Propanoyl(3-(4-F-phenyl))}-[d1Nal]P[NMeY][dK](Nicotinoyl)L-{NH(2-pyrrolidin-1-ylethyl)})	8.71
CC(C)C[C@H](NC(=O)[C@@H](CCCCNC(=O)c1cccnc1)NC(=O)[C@@H]1Cc2ccccc2CN1C(=O)[C@H](CO)NC(=O)[C@@H](Cc1cccc2ccccc12)NC(=O)CCc1ccc(F)cc1)C(=O)NCCN1CCCC1 [Example 17, 4-F-Phenylpropionyl-D1Nal-Ser-Tic-DLys(Nic)-Leu-NH--(CH2)2 -( 1-pyrrolidine)] ({Propanoyl(3-(4-F-phenyl))}-[d1Nal]S[Tic][dK](Nicotinoyl)L-{NH(2-pyrrolidin-1-ylethyl)})	9.32
CC(C)C[C@H](NC(=O)[C@@H](CCCCNC(=O)c1cccnc1)NC(=O)[C@H](Cc1ccc(O)cc1)N1CC[C@H](NC(=O)[C@@H](Cc2cccc3ccccc23)NC(=O)CCc2ccc(F)cc2)C1=O)C(=O)NCCN1CCCC1 [Example 19, 4-F-Phenylpropionyl-D1Nal-6,7[2-(S-3-amino-2-oxo-pyrrolidin-1-yl)-S-2-(para-hydroxyl)phenylacetyl]-DLys(Nic)-Leu-NH--(CH2)2-(1-pyrrolidine)]	7.89
